Test results as given in patent US20120202814A1, “COMPOUNDS WITH DDX3 INHIBITORY ACTIVITY AND USES THEREOF” (UNIVERSITÀ DEGLI STUDI DI SIENA, priority 2009, published 2012).
Read-outs that look alike come from different tables or passages of the source.

Experiments:
[1] = molecular target: T1, human DDX3 (helicase activity) (Homo sapiens, UniProt O00571); test: Human DDX3 helicase activity assay (ds to ss nucleic acid unwinding); format: biochemical; conditions: for IC50: anti-helicase activity, na = not active, read-out: Helicase ID50; for fold improvement in anti-helicase activity with respect to EI01: ratio of helicase ID50; for fold higher potency against the helicase with respect to the ATPase activity: helicase versus ATPase ID50
T1 construct: made in house
Method: The helicase activity of DDX3 wt and mutant forms was monitored by measuring the conversion of a double stranded (ds) DNA or RNA (labelled at the 5′-end of one strand with a 6-FAM fluorescent group or P^32, respectively) into single stranded (ss) nucleic acid. Reactions were performed in 50 mM TrisHCl pH 7.5, 1 mM DTT, 0.2 mg/ml BSA, 5% glycerol and 100 μM ATP, 10 mM MgCl2 at 37° C. degrees for 10′ and stopped by adding EDTA 50 mM pH 8. Products were separated through non-denaturating 8% PAGE at 5 W for 2 hours in TBE buffer at 4° C. Substrates and products were quantified by laser scanning densitometry (Thyphoon-TRIO, GE Healthcare).
(§1) Human recombinant DDX3 was cloned, expressed and purified as described (Franca et al. Proteins 2007, 67, 1128-37).
Compounds were obtained by application of a virtual docking protocol on the RNA-binding site identified in the homology model developed in the present invention. These compounds were commercially available (EI-compounds in Table 4). A few other compounds (25-31, EXAMPLE 6) were rationally designed to target the above mentioned RNA-binding site and then synthesized. All the compounds were tested for anti-helicase activity.

[2] = molecular target: T2, human DDX3 (ATPase activity) (Homo sapiens, UniProt O00571); test: Human DDX3 ATPase activity assay (luciferase-based luminescence); format: biochemical; conditions: for Ki: DDX3 ATPase activity, read-out: Ki (μM), apparent equilibrium dissociation constant for the inhibitor to the target enzyme DDX3; for IC50: ATPase activity, read-out: ATPase ID50
T2 construct: made in house; host or cells: E. coli
Method: ATPase activity was tested with a luciferase-based luminescence assay (Easylite-Kinase, Perkin Elmer) on 96 wells microtiter plates. Briefly, recombinant purified human DDX3 (50-100 ng) was incubated in a 15 μL total reaction volume with reaction buffer (25 mM TrisHCl pH 7.5, 5 mM MgCl2), in the presence of increasing amounts of ATP and/or different combinations of ATP and the inhibitor to be tested. Reference curves in the absence of inhibitor (giving the 100% of enzymatic activity) and in the absence of enzyme (giving the baseline), were also included in each experiment. Reading was performed with a Microbeta Trilux (Perkin Elmer) luminometer, according to the manufacturer's protocol.
ATPase reactions were performed as described, in the presence of increasing amounts of inhibitor and variable ATP concentrations. Variations of the initial velocities of the reaction as a function of ATP concentrations in the absence or presence of 4 were analyzed with the equation: […]
Variation of the % inhibition as a function of compound FE15 at different ATP concentrations were fitted to the equation for cooperative binding: […]
where Vmax is the apparent maximal rate of the reaction in the absence of the inhibitor, [I] is the variable inhibitor concentration, n is the cooperativity index and Ki(app) is the apparent inhibition constant. Comparatively, fitting was done with the same Eq. (2) where n was kept fixed at the value of 1 (non-cooperativity hypothesis). F test was used to compare the two fittings and p value was calculated.
as §1
The anti-DDX3 activity of the compounds of the invention was evaluated by in vitro ATPase activity assay using the recombinant human DDX3 protein produced in E. coli. The potency of inhibition (Ki) for each molecule was calculated, representing the concentration of the inhibitor able to reduce the DDX3 ATPase activity by 50%

HIV-1 = test: Antiviral assay, HIV-1 replication in infected PBMCs (viral RNA in supernatant); format: cell-based; conditions: for EC50: Human immunodeficiency virus 1, PBMC
Method: (§2) FIG. 1. A) Antiviral activity (expressed as % of viral load with respect to the control) of compounds FE56 and FE66 at 0.3 μM and 3 μM doses against single round HIV-1 replication in HeLaCD4+ cells infected with a wild type HIV-1 strain. Measurements were performed at 72 h post infection. B) Antiviral activity of compounds FE15 and FE66 on HIV-1 replication in phytohemagglutinin-stimulated peripheral blood mononuclear cells (PBMCs) […] with HeLa CD4^+-cell culture supernatants containing wild type HIV. Compounds were tested at 50 μM (FE15) and 5 μM (FE66). The HIV-1 RNA was quantified in the cell culture supernatant after 3, and 5 days of incubation. Results are expressed as HIV RNA copies/ml. Control (white bars).
FIG. 2. Antiviral activity of DDX3 inhibitors. A) Comparison of the antiviral activity (expressed as % of viral RNA with respect to the control) on infected PBMCs of a fixed dose of selected inhibitors. Measurements were performed at 72 h post infection. Values are the means of three independent replicates. Error bars are ±SD. White bars: control without drugs; dark grey bar: positive control with AZT (0.01 μM); black bar: first generation inhibitor FE15 (50 μM); light grey bars: second generation DDX3 inhibitors FE66, 11d and 38 (3 μM). B) Dose-response curves for the inhibiton of HIV-1 replication (expressed as % of viral RNA with respect to the control) in infected PBMCs by FE15 (circles) and 38 (triangles). Measurements were performed at 72 h post infection. Values are the means of three independent replicates. Error bars are ±SD.
In detail, 0.5 μg of each HIV-1 plasmid construct was transfected into CD4 HeLa cells by using the lipofectin reagent, according to the recommendations of the manufacturer (Invitrogen, Groningen, The Netherlands). After 3 days of incubation at 37° C., the cell supernatants, which contained reconstituted viable recombinant viruses, were collected. Quantification of the newly produced recombinant strains was obtained by determination of the HIV RNA copy number in the cell culture supernatants. Successively, 10 ml of transfected HeLa CD4^+-cell culture supernatants containing wild-type, and mutated recombinant HIV strain […], was used to infect aliquots of 10×10^6 phytohemagglutinin-stimulated peripheral blood mononuclear cells (PBMCs) from HIV-seronegative blood donors. After 4 h of incubation, supernatants were removed and infected PBMCs were incubated at 37° C. in 10 ml of RPMI 1640 medium (Eurobio, Les Ulis Cedex B, France) supplemented with 20% fetal calf serum (Life Technologies, Ltd., Paisley, Scotland), 2 mM l-glutamine, 100 U of penicillin per ml, 100 μg of streptomycin per ml, 10% interleukin-2 (ZeptoMetrix Co., Buffalo, N.Y.), 5 μg of hydrocortisone (Sigma Chemical Co.) per ml and with fourfold dilutions of antiretroviral drugs. No-drug controls for each drug dilution were included in each assay. After 3, 5 and 7 days of incubation the HIV-1 RNA in the cell culture supernatant was quantified. Recombinant HIV-1 strains from treatment-naive patients and multidrug resistance-associated changes were assayed in parallel. The degree of inhibition of viral replication was measured by determining the HIV-1 RNA level in the supernatants of cell cultures and was expressed as the fold increase in the 50% inhibitory concentrations (IC50s) for resistant recombinant HIV-1 variants compared with the IC50s for the wild-type recombinant variant. Each test was performed in triplicate.

[3] = Cell viability / cytotoxicity on HeLa cells; format: cell-based; conditions: human, HeLa cells (cervical cancer cell line)
Method: (§3) Cell viability in the presence of the compounds has been determined by standard MTT assays.
(§4) Selected compounds from Table 1 were tested against the cervical cancer HeLa cell line for antiproliferative activity. Cell viability was measured with the CellTiter viability assay (Table 2). Table 3 lists the calculated antiproliferative potencies (EC50, dose required to suppress 50% of cell viability) for a series of representative compounds of the invention.

HeLa cells = test: Cell viability / cytotoxicity on HeLa cells; format: cell-based; conditions: for Selectivity index HeLa, CC50/EC50: HeLa CC50 / antiviral EC50
Method: as §3, §4

[4] = Cell viability / cytotoxicity on MOLT-4 cells; format: cell-based; conditions: human, MOLT-4 cells; MOLT-4; Table 2 prints no unit; read-out: Cytotoxicity (CC50) MOLT-4, dose required to reduce 50% cell vitality
Text: as §3

MOLT-4 = test: Cell viability / cytotoxicity on MOLT-4 cells; format: cell-based; conditions: MOLT-4 CC50 / antiviral EC50
Text: as §3

[5] = Cell viability / cytotoxicity on PBMCs; format: cell-based; conditions: human; PBMCs; Table 2 prints no unit; read-out: Cytotoxicity (CC50) PBMCs, dose required to reduce 50% cell vitality
Text: as §3

PBMCs = test: Cell viability / cytotoxicity on PBMCs; format: cell-based; conditions: PBMCs CC50 / antiviral EC50
Text: as §3

wild type HIV-1 strain = test: HIV-1 single round replication in HeLaCD4+ cells; format: cell-based; conditions: wild type HIV-1, 0.3 μM and 3 μM doses, 72 h post infection
Method: as §2
Selected compounds from Table 1 were tested against HIV-1 replication in two different model systems.

[6] = 72 h, read-out: EC50, anti-HIV activity
[7] = read-out: Antiviral activity, dose required to reduce 50% viral proliferation (measured as viral RNA load)
[8] = HeLa, Table 2 prints no unit, text gives μM, read-out: Cytotoxicity (CC50) HeLa, dose required to reduce 50% cell vitality

T1 sequence (O00571 whole entry): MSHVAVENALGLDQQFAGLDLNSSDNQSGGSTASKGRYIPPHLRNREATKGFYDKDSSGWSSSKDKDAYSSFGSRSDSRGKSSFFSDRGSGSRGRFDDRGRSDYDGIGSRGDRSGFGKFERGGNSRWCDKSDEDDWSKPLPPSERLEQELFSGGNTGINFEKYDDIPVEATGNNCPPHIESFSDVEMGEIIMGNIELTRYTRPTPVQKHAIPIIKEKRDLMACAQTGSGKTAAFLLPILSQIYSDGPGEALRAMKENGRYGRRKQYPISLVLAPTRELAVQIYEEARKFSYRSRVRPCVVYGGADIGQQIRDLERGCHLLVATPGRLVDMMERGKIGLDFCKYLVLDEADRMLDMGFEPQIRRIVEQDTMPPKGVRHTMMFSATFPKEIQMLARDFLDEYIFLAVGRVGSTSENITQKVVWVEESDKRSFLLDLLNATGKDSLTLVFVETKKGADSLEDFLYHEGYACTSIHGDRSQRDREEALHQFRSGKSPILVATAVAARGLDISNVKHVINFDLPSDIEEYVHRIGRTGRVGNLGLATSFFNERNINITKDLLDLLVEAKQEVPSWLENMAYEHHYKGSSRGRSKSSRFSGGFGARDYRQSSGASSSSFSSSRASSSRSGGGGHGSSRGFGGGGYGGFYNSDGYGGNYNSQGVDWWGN
T2 sequence (O00571 whole entry): as above

Nc1cccc(NC(=O)Nc2cccc(N)c2)c1 [Compound 30, 1,3-bis(3-aminophenyl)urea]
IC50 [1]: 24 µM

Cc1ccccc1NC(=O)Nc1cccc(N)c1 [Compound 26, 1-(3-aminophenyl)-3-o-tolylurea]
IC50 [1]: 5.7 µM | fold improvement in anti-helicase activity with respect to EI01 [1]: 43 fold

O=C(CCN1C(=O)/C(=C/c2cccc(Br)c2)SC1=S)Nc1ccccc1O [FE-15, (Z)-3-(5-(3-Bromobenzylidene)-4-oxo-2-thioxothiazolidin-3-yl)-N-(2-hydroxyphenyl)propanamide]
Ki [2]: 4.5 µM | reduction of viral load compared with 11d and 38 at 3 μM (HIV-1; HIV-1 infected PBMCs, compound at 50 μM, 72 h post infection): comparable effects | EC50 (HIV-1; [6]): 83 µM | EC50 (HIV-1; [7]): 83 ± 7 µM | viral RNA, multiple rounds of replication (HIV-1; PBMC, wild type HIV-1, 5 days post infection, FE15 50 μM, FE66 (35b) 5 μM): significant reduction of viral RNA | CC50 ([3]; read-out: CC50, cytotoxicity on HeLa cells): > 200 µM | Selectivity index HeLa, CC50/EC50 (HeLa cells): 2.4 | CC50 (HeLa cells; [8]): > 200 µM | CC50 [4]: > 200 µM | Selectivity index MOLT-4, CC50/EC50 (MOLT-4): 2.4 | CC50 [5]: > 150 µM | Selectivity index PBMCs, CC50/EC50 (PBMCs): 1.8 | melting point: 222 to 224 °C

O=C(Nc1cccc([N+](=O)[O-])c1)Nc1cccc([N+](=O)[O-])c1 [Compound 29, 1,3-bis(3-nitrophenyl)urea]
IC50 [1]: 52 µM

Cc1ccccc1NC(=O)Nc1cccc([N+](=O)[O-])c1 [Compound 25, 1-(3-nitrophenyl)-3-o-tolylurea]
IC50 [2]: 11 µM | fold higher potency against the helicase with respect to the ATPase activity [1]: 11 fold | fold improvement in anti-helicase activity with respect to EI01 [1]: 245 fold

Cc1ccccc1NC(=O)Nc1cccc(NC(=O)Nc2ccccc2C)c1 [EI-01]
IC50 [2]: 245 µM | IC50 [1]: 250 µM | fold higher potency against the helicase with respect to the ATPase activity [1]: did not discriminate between ATPase and helicase activities

Cc1ccc(NC(=O)c2cccc(NC(=O)Nc3cccc(C)c3C)c2)cc1C [EI-01A]
IC50 [1]: 131 µM

Oc1ccccc1/C=N/Nc1nc(Nc2ccc(F)cc2)nc(Nc2ccc(F)cc2)n1 [Compound 38, (E)-2-((2-(4,6-bis(4-Fluorophenylamino)-1,3,5-triazin-2-yl)hydrazono)methyl)phenol]
Ki [2]: 0.1 µM | fold higher antiviral potency than the inhibitor FE15 (HIV-1; HIV-1 infected PBMCs, ratio of EC50): 41 fold | EC50 (HIV-1; [6]): 2 µM | EC50 (HIV-1; [7]): 2 ± 0.2 µM | CC50 [3, 8]: 20 ± 2 µM | Selectivity index HeLa, CC50/EC50 (HeLa cells): 10 | CC50 [4]: 10 ± 1 µM | Selectivity index MOLT-4, CC50/EC50 (MOLT-4): 5.0 | CC50 [5]: 8 ± 0.5 µM | Selectivity index PBMCs, CC50/EC50 (PBMCs): 4.0

Cc1ccccc1NC(=O)Nc1cccc(NC(=O)Nc2cccc(NC(=O)Nc3ccccc3C)c2)c1 [Compound 31, 1,3-bis(3-{[(2-methylphenyl)carbamoyl]amino}phenyl)urea]
IC50 [1]: 1300 µM

O=C1Nc2ccccc2/C1=N/Nc1nc(Nc2ccccc2)nc(Nc2ccccc2)n1 [FE-56]
Ki [2]: 0.4 µM | viral load (viral RNA copies), single-round replication (wild type HIV-1 strain): dose-dependent reduction of viral load

Oc1ccccc1/C=N/Nc1nc(Nc2ccc(F)cc2)nc(N2CCOCC2)n1 [Compound 16c]
EC50 (HIV-1; [7]): 2.5 ± 0.1 µM | CC50 [3, 8]: 2.5 ± 0.3 µM | Selectivity index HeLa, CC50/EC50 (HeLa cells): 1.0 | CC50 [4]: 5 ± 1 µM | Selectivity index MOLT-4, CC50/EC50 (MOLT-4): 2.0 | CC50 [5]: 10 ± 1 µM | Selectivity index PBMCs, CC50/EC50 (PBMCs): 4.0

O=C(Nc1cccc(C(=O)Nc2ccccc2Cl)c1)Nc1ccccc1Cl [EI-01B]
IC50 [1]: 1300 µM
